In patent publication US20250213649A1, “PEPTIDE HAVING ANTI-INFLAMMATORY AND ANTI-FIBROTIC ACTIVITIES AND USE THEREOF” (CAREGEN CO., LTD., priority 2022, published 2025):

Experiments:
BALB/c mice = assay: BLM-induced pulmonary fibrosis model, Masson's Trichrome staining of lung tissue collagen; assay type: in vivo; conditions: BALB/c male mice, peptide 1 mg/mouse intranasal three times a week for 14 days, 21st day, Trichrome staining (FIG. 15a, 15b)
Procedure: As shown in [Table 6] below, 8-week-old BALB/c male mice were divided into 4 groups of 5 mice each. On the 1st day, a Bleomycin solution ([…]/50 μl/mouse) was administered through the oropharynx to carry out one time of induction with BLM. Then, from the 7th day, the peptide of Production Example 1 (1 mg/mouse) was administered intranasally three times a week for 14 days, and Pirfeninone (2 mg/mouse) for a positive control group was administered orally three times a week for 14 days. On the 21st day of the induction with BLM, mice were sacrificed to obtain the bronchoalveolar lavage fluid and the lung tissue, which were used in the next analysis.
The lung tissue obtained from mice subjected to the animal experiment was washed with PBS at room temperature and then fixed with 4% paraformaldehyde (PBS dilution). The fixed tissue was washed three times with PBS and dehydrated using an ethanol series having a concentration gradient of 70% to 100%. Next, the lung tissue sample was embedded and cut into slices having a thickness of 4 μm. The sliced specimen having a size of 4 μm, which was placed on a slide glass, was dewaxed and hydrated in an ethanol series having a concentration gradient. Staining was carried out for 10 minutes in each of Weigert's iron hematoxlin, a Biebrich scarlet-acid fuchsin solution, a Phosphomolybdic-phosphotungstic acid solution, and an aniline blue solution. […]

A549 cells = assay: Inhibition of LPS-induced inflammatory cytokine gene expression, RT-PCR, A549 cells; assay type: cell-based, human; conditions: 5 μg/ml LPS, peptide 10, 50, 100, 500 μM, 3 hours, RT-PCR (FIG. 2)
Procedure: A549 cells (human alveolar basal epithelial cells) were seeded at 3×10^5 cells/well in a 6-well plate and used in the experiment. After culturing for 1 day with a culture medium containing 10% FBS, the culture medium was replaced with a culture medium without containing FBS to induce starvation for 4 hours. A normal group without being treated with any substances, a group treated with 5 μg/ml of LPS (Sigma Aldrich) (negative control group), groups treated with 5 μg/ml of LPS and the peptide of Production Example 1 (10, 50, 100, 500 μM), and a group treated with 5 μg/ml of LPS and 10 μM of Dexamethasone (DEX) (positive control group) were treated with active substances and drugs respectively, and then RNA was extracted after 3 hours to carry out RT-PCR. RNA was extracted from the A549 cells in the above-described treatment group using an easy-BLUE™ Total RNA extraction kit (Qiagen, Germany). The extracted RNA was converted into cDNA with RT-PCR premix (iNtRON Biotechnology, Seongnam, Korea). After preparing a reaction mixture with PCR premix (iNtRON Biotechnology, Seongnam, Korea) and primers for each gene, PCR was carried out using a PCR machine (Eppendorf, Germany). Next, the mRNA expression pattern was determined by agarose gel electrophoresis. The base sequences of the primers used in the experiment are listed in [Table 2] below.

MRC-5 cells = assay: Inhibition of LPS-induced inflammatory cytokine gene expression, RT-PCR, MRC-5 cells; assay type: cell-based; conditions: 5 μg/ml LPS, peptide 10, 50, 100, 500 μM, 24 hours, RT-PCR (FIG. 1)
Procedure: MRC-5 cells (lung fibroblast cells) were seeded at 3×10^5 cells/well in a 12-well plate and used in the experiment. After culturing for 1 day with a culture medium containing 10% FBS, the culture medium was replaced with a culture medium without containing FBS to induce starvation for 4 hours. A normal group without being treated with any substances, a group treated with 5 μg/ml of LPS (Sigma Aldrich) (negative control group), groups treated with 5 μg/ml of LPS and the peptide of Production Example 1 (10, 50, 100, 500 μM), and a group treated with 5 μg/ml of LPS and 10 μM of Dexamethasone (DEX) (positive control group) were treated with active substances and drugs respectively, and then RNA was extracted after 24 hours to carry out RT-PCR. RNA was extracted from MRC-5 cells using an easy-BLUE™ Total RNA extraction kit (Qiagen, Germany). The extracted RNA was converted into cDNA with RT-PCR premix (iNtRON Biotechnology, Seongnam, Korea). After preparing a reaction mixture with PCR premix (iNtRON Biotechnology, Seongnam, Korea) and primers for each gene, PCR was carried out using a PCR machine (Eppendorf, Germany). Next, the mRNA expression pattern was determined by agarose gel electrophoresis. The base sequences of the primers used in the experiment are listed in [Table 2] below.

KYLLVHRPYYRR [peptide of Production Example 1]
degree of collagen deposition in the lung tissue (BALB/c mice): significantly reduced | gene expression of COX-2 (A549 cells): decreases in a concentration-dependent manner | gene expression of IL-1β (A549 cells): decreases in a concentration-dependent manner | gene expression of IL-6 (A549 cells): decreases in a concentration-dependent manner | gene expression of IL-8 (A549 cells): decreases in a concentration-dependent manner | gene expression of TNF-α (A549 cells): decreases in a concentration-dependent manner | gene expression of IL-1β (MRC-5 cells): decreases in a concentration-dependent manner | gene expression of IL-6 (MRC-5 cells): decreases in a concentration-dependent manner | gene expression of IL-8 (MRC-5 cells): decreases in a concentration-dependent manner | gene expression of TNF-α (MRC-5 cells): decreases in a concentration-dependent manner
